# Patent US7981930B2, “Compositions and kits for treating influenza” (Adamas Pharmaceuticals, Inc., priority 2007, dated 2011)
# Tested on: wild type A/Albany (H3N2) strain
# Experiment: Hollow fiber system, MDCK cells, continuous infusion 168 hours, viral titer and sequencing
# Format: cell-based, Influenza A virus (H3N2)
# Conditions: monotherapy arms vs. triple high dose arm
smiles,measurement,value
CCOC(=O)C1=C[C@@H](OC(CC)CC)[C@H](NC(C)=O)[C@@H](N)C1 [Oseltamivir],"formation of drug resistance (M2, NA sequencing)",appreciable formation of M2 and NA drug resistance
